Several values for one entry are separate records, joined by “and”; a condition that tells them apart may be missing. Equal entries are not always repeated. Values belong to the compound of their own block, whether it stands above or below them.
System: 324938-238-R-J1-PDC complex spheroid viability
Test: Anticancer human tumor 324938-238-R-J1-PDC patient-derived bladder carcinoma cell line growth inhibition
Details: for viability, T/C: stronger effect = lower value
Source text: Multicellular complex tumor spheroid response to LSD1 Inhibitor Iadademstat in combination with a variety of drugs and investigational agents in selected tumor cell lines
The current study was undertaken to assess response to LSD1 inhibitors in combination with standard-of-care drugs and investigational agents in solid tumor complex spheroid models as well as in the K-562 leukemia. Complex spheroids include a stromal component modeled by human endothelial cells (HUVEC) and fibroblasts modeled by human mesenchymal stem cells (MSCs). The concentration ranges selected for each drug and investigational agent were based upon clinically achievable concentrations if the clinical Cmax of the agent was known.
Compounds. The drugs and investigational agents used in this study are listed on Table 1. All of the agents used, including staurosporine (NSC755774) and gemcitabine (NSC613327), were obtained from the Developmental Therapeutics Program, NCI. FDA-approved anticancer drugs are available from the NCI at http://dtp.nci.nih.gov/branches/dscb/oncology_drugset_explanation.html. Drugs and investigational agents were >95% pure by proton nuclear magnetic resonance (NMR) and liquid chromatography/mass spectrometry (LC/MS). Stock solutions were prepared at 400x in DMSO, stored at -70 degrees C, and diluted in fresh medium prior to their use. The final concentration of DMSO in cell culture wells never exceeded 0.25% (v/v). The FDA-approved anticancer drug set is available from the Developmental Therapeutics Program at https://dtp.cancer.gov/organization/dscb/obtaining/available_plates.htm. All drugs and investigational agents were tested over a range starting from a high concentration at or near the clinical Cmax and decreasing in half-log increments. If the clinical Cmax for an agent had not been determined, the highest concentration tested was 10 microM.
Cell Lines. The patient-derived cancer cell (PDC) lines: 292921-168-R-J2-PDC, K24384-001-R-PDC, and 521955-158-R2-J5-PDC pancreatic carcinomas, 556581-035-R-J1 ovarian carcinoma, 324938-238-R-J1-PDC, 855422-203-R-J1-PDC and 883617-216-R-J1-PDC urothelial bladder carcinomas, 743489-274-T-PDC renal cell carcinoma, 138582-R-J1 Merkel cell tumor, K60290-347-R-J1 and K57222-313-R-J1-PDC glioblastomas, 653999-131-R-J2-PDC, LG0703-F948-PDC, and 349418-098-R-PDC non-small cell lung carcinomas, 885512-296-R-J2-PDC, 171881-019-R-J1-PDC breast carcinomas and 186277-243-T-J2-PDC and 233499-124-R-J2-PDC colon carcinomas were obtained from the NCI Patient-Derived Models Repository (PDMR, https://pdmr.cancer.gov). The established cell lines NCI/ADR-RES (RRID:CVCL_14520 and OVCAR-5 (RRID:CVCL_1628) ovarian carcinomas, 786-O (RRID:CVCL_1051) and A498 (RRID:CVCL_A498) renal cell carcinoma, NCI-H211 (ATCC, cat. CRL-5824; RRID:CVCL_1529), NCI-H196 (ATCC, cat. CRL-5823, RRID:CVCL_1509), SW 1271 (ATCC, cat. CRL-2177, RRID:CVCL_1716) and NCI-H1876 (ATCC, cat. CRL-5902, RRID:CVCL_1503) small cell lung carcinomas, MDA-MB-231 (RRID:CVCL_0062) and MDA-MB-468 (RRID:CVCL_0419)breast carcinomas (10-12). Pooled donor human umbilical vein endothelial cells (HUVEC, Lonza, cat. CC-2519) and human mesenchymal stem cells (hMSC, Lonza, cat. PT-2501) were purchased from Lonza (Walkersville, MD).
Cell Culture. All cells were maintained in an incubator at 37 degrees C and 5% CO2 with 95% humidity. The PDC lines were cultured according to standard operating procedures established by the NCI PDMR (https://pdmr.cancer.gov). Briefly all PDCs were thawed and cultured in Matrigel-coated flasks prepared with a working solution of 1X Ham's F-12 nutrient mix, without supplementation (Invitrogen, Waltham, MA, cat. 11765054), 100 U/mL penicillin-streptomycin (Invitrogen, cat. 15140122), and 2.5% Matrigel (Corning Inc., Corning, NY, cat. 354248) for the first three passages. […]

[1] = curve of first compound, second compound 0.1 µM
[2] = curve of first compound, second compound 0.316 µM
[3] = curve of first compound, second compound 1 µM
[4] = curve of first compound, second compound 3.16 µM
[5] = curve of first compound, second compound 10 µM
[6] = second compound 0.1 µM, first compound 0.000316 µM
[7] = second compound 0.1 µM, first compound 0.001 µM
[8] = second compound 0.1 µM, first compound 0.00316 µM
[9] = second compound 0.1 µM, first compound 0.01 µM
[10] = second compound 0.1 µM, first compound 0.0316 µM
[11] = second compound 0.1 µM, first compound 0.1 µM
[12] = second compound 0.316 µM, first compound 0.000316 µM
[13] = second compound 0.316 µM, first compound 0.001 µM
[14] = second compound 0.316 µM, first compound 0.00316 µM
[15] = second compound 0.316 µM, first compound 0.01 µM
[16] = second compound 0.316 µM, first compound 0.0316 µM
[17] = second compound 0.316 µM, first compound 0.1 µM
[18] = second compound 1 µM, first compound 0.000316 µM
[19] = second compound 1 µM, first compound 0.001 µM
[20] = second compound 1 µM, first compound 0.00316 µM
[21] = second compound 1 µM, first compound 0.01 µM
[22] = second compound 1 µM, first compound 0.0316 µM
[23] = second compound 1 µM, first compound 0.1 µM
[24] = second compound 3.16 µM, first compound 0.000316 µM
[25] = second compound 3.16 µM, first compound 0.001 µM
[26] = second compound 3.16 µM, first compound 0.00316 µM
[27] = second compound 3.16 µM, first compound 0.01 µM
[28] = second compound 3.16 µM, first compound 0.0316 µM
[29] = second compound 3.16 µM, first compound 0.1 µM
[30] = second compound 10 µM, first compound 0.000316 µM
[31] = second compound 10 µM, first compound 0.001 µM
[32] = second compound 10 µM, first compound 0.00316 µM
[33] = second compound 10 µM, first compound 0.01 µM
[34] = second compound 10 µM, first compound 0.0316 µM
[35] = second compound 10 µM, first compound 0.1 µM
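Note: spheroids also contain HUVEC and human MSCs and agents combined with iadademstat; spheroids exposed to agents for 7 days before readout.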

IC50 (curve of compound): 6730 nM and 5650 nM
Compound: CC1(C)CCC(CN2CCN(c3ccc(C(=O)NS(=O)(=O)c4ccc(NCC5CCOCC5)c([N+](=O)[O-])c4)c(Oc4cnc5[nH]ccc5c4)c3)CC2)=C(c2ccc(Cl)cc2)C1
viability, T/C (compound 0.0316 µM): 99% and 104%
viability, T/C (compound 0.1 µM): 102% and 108%
viability, T/C (compound 0.316 µM): 107% and 109%
viability, T/C (compound 1 µM): 103% and 90.5%
viability, T/C (compound 3.16 µM): 90.8% and 83%
viability, T/C (compound 10 µM): 28.4% and 20.4%

IC50 (curve of compound): 326 nM and 256 nM
Compound: NS(=O)(=O)OCC1CC(n2ccc3c(NC4CCc5ccccc54)ncnc32)CC1O (centres undefined)
viability, T/C (compound 0.00949 µM): 103% and 106%
viability, T/C (compound 0.03 µM): 106% and 112%
viability, T/C (compound 0.0949 µM): 93.4% and 94%
viability, T/C (compound 0.3 µM): 54.2% and 43.8%
viability, T/C (compound 0.949 µM): 12.5% and 10.2%
viability, T/C (compound 3 µM): 15.6% and 11.9%

Compound: Nc1ccn(C2OC(CO)C(O)C2(F)F)c(=O)n1 (centres undefined) + NC1CC1c1ccc(-c2cccc(O)c2)cc1
IC50 [1]: < 0.949 nM
IC50 [2]: < 0.949 nM
IC50 [3]: < 0.949 nM
IC50 [4]: < 0.949 nM
IC50 [5]: < 0.949 nM
viability, T/C (second compound 0.1 µM, first compound 0.000949 µM): 11.1%
viability, T/C (second compound 0.1 µM, first compound 0.003 µM): 8.09%
viability, T/C (second compound 0.1 µM, first compound 0.00949 µM): 6.87%
viability, T/C (second compound 0.1 µM, first compound 0.03 µM): 6.29%
viability, T/C (second compound 0.1 µM, first compound 0.0949 µM): 6.35%
viability, T/C (second compound 0.1 µM, first compound 0.3 µM): 5.04%
viability, T/C (second compound 0.316 µM, first compound 0.000949 µM): 10.9%
viability, T/C (second compound 0.316 µM, first compound 0.003 µM): 7.27%
viability, T/C (second compound 0.316 µM, first compound 0.00949 µM): 5.74%
viability, T/C (second compound 0.316 µM, first compound 0.03 µM): 5.98%
viability, T/C (second compound 0.316 µM, first compound 0.0949 µM): 5.39%
viability, T/C (second compound 0.316 µM, first compound 0.3 µM): 5.59%
viability, T/C (second compound 1 µM, first compound 0.000949 µM): 11%
viability, T/C (second compound 1 µM, first compound 0.003 µM): 7.32%
viability, T/C (second compound 1 µM, first compound 0.00949 µM): 5.8%
viability, T/C (second compound 1 µM, first compound 0.03 µM): 6.74%
viability, T/C (second compound 1 µM, first compound 0.0949 µM): 5.16%
viability, T/C (second compound 1 µM, first compound 0.3 µM): 4.64%
viability, T/C (second compound 3.16 µM, first compound 0.000949 µM): 10.4%
viability, T/C (second compound 3.16 µM, first compound 0.003 µM): 6.79%
viability, T/C (second compound 3.16 µM, first compound 0.00949 µM): 7.61%
viability, T/C (second compound 3.16 µM, first compound 0.03 µM): 5.95%
viability, T/C (second compound 3.16 µM, first compound 0.0949 µM): 5.45%
viability, T/C (second compound 3.16 µM, first compound 0.3 µM): 5.23%
viability, T/C (second compound 10 µM, first compound 0.000949 µM): 15.8%
viability, T/C (second compound 10 µM, first compound 0.003 µM): 11.2%
viability, T/C (second compound 10 µM, first compound 0.00949 µM): 10.4%
viability, T/C (second compound 10 µM, first compound 0.03 µM): 7.49%
viability, T/C (second compound 10 µM, first compound 0.0949 µM): 5.31%
viability, T/C (second compound 10 µM, first compound 0.3 µM): 5.65%

Compound: CC(C)CC(NC(=O)C(Cc1ccccc1)NC(=O)c1cnccn1)B(O)O (centres undefined) + NC1CC1c1ccc(-c2cccc(O)c2)cc1
IC50 [1]: 0.458 nM
IC50 [2]: 0.404 nM
IC50 [3]: 0.364 nM
IC50 [4]: 0.389 nM
IC50 [5]: 0.34 nM
viability, T/C [6]: 68.2%
viability, T/C [7]: 12.1%
viability, T/C [8]: 0.5%
viability, T/C [9]: 2.29%
viability, T/C [10]: 0.55%
viability, T/C [11]: 0.16%
viability, T/C [12]: 62%
viability, T/C [13]: 5.56%
viability, T/C [14]: 0.25%
viability, T/C [15]: 0.3%
viability, T/C [16]: 0.26%
viability, T/C [17]: 0.14%
viability, T/C [18]: 56%
viability, T/C [19]: 6.79%
viability, T/C [20]: 0.15%
viability, T/C [21]: 0.61%
viability, T/C [22]: 0.07%
viability, T/C [23]: 0.17%
viability, T/C [24]: 59.2%
viability, T/C [25]: 7.68%
viability, T/C [26]: 0.39%
viability, T/C [27]: 0.28%
viability, T/C [28]: 0.28%
viability, T/C [29]: 0.14%
viability, T/C [30]: 53.1%
viability, T/C [31]: 4.57%
viability, T/C [32]: 0.15%
viability, T/C [33]: 0.15%
viability, T/C [34]: 0.16%
viability, T/C [35]: 0.21%

Compound: CC[C@@]1(O)C(=O)OCc2c1cc1n(c2=O)Cc2cc3c(CN(C)C)c(O)ccc3nc2-1 + NC1CC1c1ccc(-c2cccc(O)c2)cc1
IC50 [1]: 1.32 nM
IC50 [2]: 1.13 nM
IC50 [3]: 1.38 nM
IC50 [4]: 1.22 nM
IC50 [5]: 1.17 nM
viability, T/C [6]: 82.5%
viability, T/C [7]: 57%
viability, T/C [8]: 27%
viability, T/C [9]: 7.09%
viability, T/C [10]: 7.47%
viability, T/C [11]: 8.37%
viability, T/C [12]: 68.2%
viability, T/C [13]: 52.5%
viability, T/C [14]: 25.4%
viability, T/C [15]: 6.5%
viability, T/C [16]: 7.53%
viability, T/C [17]: 6.02%
viability, T/C [18]: 67.8%
viability, T/C [19]: 58.2%
viability, T/C [20]: 27.7%
viability, T/C [21]: 6.31%
viability, T/C [22]: 6.22%
viability, T/C [23]: 8.13%
viability, T/C [24]: 69.7%
viability, T/C [25]: 53.6%
viability, T/C [26]: 28.6%
viability, T/C [27]: 7%
viability, T/C [28]: 5.72%
viability, T/C [29]: 6.54%
viability, T/C [30]: 66.1%
viability, T/C [31]: 52.7%
viability, T/C [32]: 28.8%
viability, T/C [33]: 10.2%
viability, T/C [34]: 8.64%
viability, T/C [35]: 9.59%
